Reference: patent US20250002972A1, “METHOD FOR MEASURING SOMATIC DNA MUTATION AND DNA DAMAGE PROFILES AND A […] SUITABLE THEREFORE” (Albert Einstein College of Medicine, priority 2021, published 2025)
“And” between values parts separate entries of the source, which are not always exact repeats. Equal entries are not always repeated.

Assays:
[1] = system: IMR90 cells; assay: Cell death of IMR90 cells at the ENU doses used; format: cell-based, human; conditions: sub-lethal doses of ENU (25 and 50 μg/ml)
[2] = system: Human normal lung IMR90 fibroblasts; assay: SMM-Seq detection of induced somatic SNVs in IMR90 cells treated with ENU; format: cell-based; conditions: for sSNVs frq / mutation spectra: CA count / mutation spectra: CG count / mutation spectra: CT count / mutation spectra: TA count / mutation spectra: TC count / mutation spectra: TG count: 72 hours; for sSNVs frq / sSNVs count: single biological replicate; for sSNVs frq: variants / qualified positions (SNV/1 Mb); for mutation spectra: CA count / mutation spectra: CG count / mutation spectra: CT count / mutation spectra: TA count / mutation spectra: TC count / mutation spectra: TG count: single replicate; for sSNVs count: harvested 72 hours after ENU
Procedure: Human normal lung IMR90 fibroblasts were maintained in 10% CO2 and 3% O2 atmosphere at 37° C. in DMEM (GIBCO, Grand Island, NY, USA) supplemented with 10% FBS (GIBCO). Twenty-four hours after cell seeding the culturing media was changed for media containing different doses of ENU. Cells were harvested 72 hours after ENU was applied. Complete media supplemented with ENU (SIGMA, San Louis, MO, USA) was prepared immediately before application from stock solution (100 mg/ml in 100% ethyl alcohol). Control cells were cultured in the presence of the vehicle only.
DNA from fibroblasts and hepatocytes was isolated using Quick-gDNA™ Blood MiniPrep (Zymo Research Corporation, Irvine, CA, USA) according to the manufacturer instructions and quantified using QUBIT kit (ThermoFisher Scientific, USA).
Genomic DNA was first fragmented by double digestion with restriction endonucleases AluI and MluCI (NEB, USA), overnight at 37° C. After purification using 1.5×AMPure XP beads (Beckman Coulter, USA) the fragmented DNA was further processed using NEBNext Ultra II DNA Library Prep Kit for Illumina (NEB). The adapter provided with the kit was replaced with custom adapter P5_HP6N. After double sided size-selection using AMPure XP beads (Beckman Coulter), resulting dumbbell-like product was quantified with QUBIT kit (ThermoFisher) and analyzed on 2100 Bioanalyzer instrument with High Sensitivity DNA kit (Agilent, USA). To prepare P5_HP6N adapter 86 μl of 10 μM solution of oligonucleotide 5′-TCTTC TACAGT NNNNNN AGATCG GAAGAG CACACG TCTGAA CTCCAG TC/ideoxyU/ACACTC TTTCCC TACACG ACGCTC TTCCGA TCT-3′ (IDT, USA) in 0.1×TE buffer was first exposed to 95° C. for 5′ followed by 37° C. for 5′ to form a hairpin. Next, to fill-in the extending 5′-end the self-annealed oligonucleotide was supplemented with 10 μl of Cutsmart buffer (NEB), 2 μl of 10 mM dNTPs mix (NEB) and 10 U of Klenow Fragment (3′→5′ exo-) (NEB) and incubated at 37° C. for 30′. After purification with QIAquick Nucleotide Removal Kit (QIAGEN, USA), the hairpins were digested with 10U of HpyCH4III (NEB) for 1 hour at 37° C., then purified again with QIAquick Nucleotide Removal Kit (QIAGEN) and eluted with 100 μl of EB to obtain ready to use adapter solution.
Next, for SMM sequencing library preparation samples were diluted based on assessed molar concentration. Assuming 150PE sequencing mode and 30 Gb of data per sample, the dilution coefficient (D) was calculated using the formula D=M*NA/1025, where M—sample concentration (pM); NA—Avogadro constant. Next, 1 μl of diluted sample was used as a template in pulse-RCA reaction. The pulse-RCA was performed in 20 μl reaction containing 1 μl of diluted sample, 1 μl of P5-RCA oligo (5′-[…]-3′), 25U (0.5 μl) of SD polymerase HS (BIORON Diagnostics GmbH, Germany), 2 μl of SD polymerase buffer, 1 μl of 10 mM dNTPs mix (NEB), 0.6 μl of 100 mM MgCl2, and 13.9 μl of water. The pulse-RCA program was set as follows: 92° C. for 2′ (1); 92° C. for 30″ (2); 60° C. for 30″ (3); 65° C. for 150″ (4); go to (3) 9 times; hold at 4° C. Product of amplification reaction was purified with […] AMPure XP beads and resuspended in 23 μl TE buffer. The entire volume of RC amplification was PCR amplified in 50 μl reaction volume containing 23 μl of RCA product, 25 μl of NEBNext Ultra II Q5 Master Mix and 1 μl of P5 and P7 dual index oligos. The PCR program was set as follows: 98° C. for 30″ (1); 98° C. for 10″ (2); 65° C. for 75″ (3); go to (2) 8 times (4); 65° C. for 5′ (5); 4° C. forever. The PCR product was purified with 0.7×AMPure XP beads and resuspended in 30 μl of TE buffer. After quantification with Qubit, samples were pooled and sequenced on Illumina NovaSeq instrument using 150 paired-end mode.
Conventional sequencing library was prepared by PCR amplification of adapter ligated samples in 30 μl reaction volume containing 11 μl of undiluted ligated sample, 2U of USER enzyme (NEB) 15 μl of NEBNext Ultra II Q5 Master Mix and 1 μl of P5 and P7 dual index oligos. […]

[3] = system: human primary mammary cells; assay: SMM-SV somatic structural variant (SV) frequency after bleomycin; format: cell-based; conditions: two different doses of bleomycin, SMM-SV (FIG. 9C)
Description: As explained, SMM is capable of identifying SNVs and small indels, but not SVs. This is due to the overwhelming amount of chimeric DNA fragments created during library construction. For SMM-seq and other single-molecule assays the process of linking DNA fragments to the sequencing adapters also results in random ligation of DNA fragments to each other. The resulting chimeric sequences are not distinguishable from true SVs since both strands are identical and represent the same SV (FIG. 9A). To address this problem, we used transposase-mediated tagmentation, i.e., the initial step in library preparation where high molecular weight DNA is cleaved and tagged for analysis. While commonly used in library preparation, we used it here in a different, unexpected way. Indeed, as commonly used tagmentation generates priming sites for subsequent PCR which in turn is prone to produce artificial chimeras, giving a similar problem as other approaches. […] To validate SMM-SV we evaluated somatic SV frequency in human primary mammary cells treated with two different doses of bleomycin, a potent […] known to induce somatic SVs. […]

[4] = Cond E25 (ENU 25 μg/ml), IMR90 cells
[5] = Cond E50 (ENU 50 μg/ml), IMR90 cells
[6] = IMR90 cells upon ENU treatment, mutational spectra (FIG. 2C)

With `CCN(N=O)C(N)=O` [ENU, N-ethyl-N-nitrosourea] the cell death [1] was “do not cause any noticeable cell death”, the sSNVs frq [2, 4] was 0.411 and 0.3226 and 0.3595 and the “mutation spectra: CA count” value [2, 4] was 19 and 16 and 12. For the same molecule, the “mutation spectra: CG count” value [2, 4] was 7 and 8 and 4, the “mutation spectra: CT count” value [2, 4] was 10 (2×) and 11 and the “mutation spectra: TA count” value [2, 4] was 13 and 10 and 16. The “mutation spectra: TC count” value [2, 4] was 18 and 22 and 20, the “mutation spectra: TG count” value [2, 4] was 9 and 12 and 7 and the sSNVs count [2, 4] was 76 and 78 and 70. The sSNVs frq [2, 5] was 0.571 and 0.5406, the “mutation spectra: CA count” value [2, 5] was 24 and 16 and the “mutation spectra: CG count” value [2, 5] was 2 and 6. The “mutation spectra: CT count” value [2, 5] was 32 and 16, the “mutation spectra: TA count” value [2, 5] was 38 and 20 and the “mutation spectra: TC count” value [2, 5] was 28 and 23. For the same molecule, the “mutation spectra: TG count” value [2, 5] was 17 and 9, the sSNVs count [2, 5] was 141 and 90 and the “increase of mutation frequency versus control” value ([2]; ENU 50 μg/ml, IMR90 cells) was “more than 2 fold”. The mutation frequency ([2]; ENU 50 μg/ml, IMR90 cells, average±SD of three biological replicates, control 0.21±0.02, p=9.7*10-5) was 0.54±0.03 SNV/1 Mb, the “relative representation of AT/CG mutations versus untreated control cells” value [2, 6] was “more than 2 times” and the “relative representation of AT/TA mutations versus untreated control cells” value [2, 6] was “more than 2 times”.

In the case of bleomycin, the “somatic SV frequency” value [3] is reported as “induced SVs in a dose-dependent manner”.
